{"source": "patent US20230113539A1", "about": "“Traditional Chinese medicine for dispersing lung qi and detoxicating” (priority 2020, published 2023)", "key": {"GAS, MTL in mouse serum": {"tested_on": "GAS, MTL in mouse serum", "assay": "Gastrin (GAS) and motilin (MTL) in mouse serum (ELISA), same mouse model", "format": "in vivo, BALB/c mice", "text": "(§1) 90 Balb/c mice are taken, SPF-grade, half male and half female, and the body weight is 10-12 g. They are randomly divided into a normal control group, a 229E infection group, a cold-damp control group, a disease-syndrome combination model group of epidemic viruses attacking lungs in mice (hereinafter referred to as an epidemic virus attacking lung model group), a chloroquine phosphate positive drug group, and an interferon α2b positive drug group, and high, medium and low dosage groups of the traditional Chinese medicine granules of the present invention, there are 10 mice in each group. Except for the normal control group and the 229E infection group, the other mice are continuously placed in an artificial climate box with a relative humidity of 90±3%, no wind, and a temperature of 4±2° C. every day, and are taken out after 4 hours of stimulation for 7 consecutive days.\n(§2) Except for the normal control group and the cold-damp control group, the other mice are infected with 100 TCID50HCOV-229E virus droplets nasally at 50 μL/mice after mild anesthesia with ether on the 5-th and 6-th days of cold-damp stimulation. The administration of each administration group starts on the day of the first infection, and each dosage group of the traditional Chinese medicine granules of the present invention and the chloroquine phosphate positive drug group are administered by gavage at 0.2 ml/10 g; the normal control group, the cold-damp control group, the 229E infection group, the epidemic virus attacking lung model group are given with normal saline under the same conditions; the interferon α2b positive drug group is inhaled with the original drug solution by atomization, and each time is 20 min. It is administered once a day for 3 consecutive days. On the 4-th day of the infection, autopsy is performed after being weighed, and the following indicators are observed and detected.\n(§3) 2.4.4 Detection of Gastrin (GAS), Motilin (MTL) in Mouse Serum and Inflammatory Factor in Lung Tissue (ELISA Method)\nAfter dissection, mouse […] is placed at a room temperature for 30 min, and centrifuged at 3000×g for 10 min, and a supernatant is absorbed into a new eppendorf (ep) tube and stored at −20° C. During the detection, it is operated according to kit instructions, and a microplate reader detects each index at 450 nm of the absorbance."}, "[1]": {"tested_on": "peripheral blood T lymphocyte subset and B lymphocyte", "assay": "Flow cytometry of peripheral blood T lymphocyte subset and B lymphocyte proportion, same mouse model", "format": "in vivo, BALB/c mice"}, "[2]": {"tested_on": "inflammatory factors IL-6, IL-10, TNF-α, INF-γ in lung tissue", "assay": "Inflammatory factor content in lung tissue (ELISA), same mouse model", "format": "in vivo, BALB/c mice", "text": "as §1, §2, §3\nLung tissue homogenate sample: after weighing the lung tissue from the mouse, the mouse lung tissue is collected and stored at […]. After weighing 50 mg of the lung tissue and adding 500 μL of normal saline, the tissue is homogenized with an ultrasonic cell disruptor, and centrifuged at […] at 1000 xg for 10 minutes with a lower-temperature high-speed centrifuge. After the supernatant is absorbed, it is separately packaged, and stored in the −80° C. refrigerator for later use. Repeated freezing and thawing is avoided. During the detection, it is operated according to the kit instructions, and the microplate reader detects each index at 450 nm of the absorbance."}, "HCoV-229E nucleic acid": {"tested_on": "HCoV-229E nucleic acid", "assay": "Nucleic acid detection (viral load) in lung tissue (RT-PCR), same mouse model", "format": "in vivo, BALB/c mice"}, "[3]": {"tested_on": "human coronavirus (HCoV-229E)", "format": "in vivo"}, "[4]": {"conditions": "chloroquine phosphate Id: 0.18 g/kg/d, 2~3: 0.09 g/kg/d"}, "[5]": {"conditions": "chloroquine phosphate Id: 0.18 g/kg/d, 2~3 d: 0.09 g/kg/d"}, "[6]": {"conditions": "interferon α2b 300 million IU, 20 min"}}, "note": "Read-outs that look alike come from different tables or passages of the source.", "data": [{"molecule": "CCN(CC)CCCC(C)Nc1ccnc2cc(Cl)ccc12", "note": "(centres unmarked) [Chloroquine phosphate]", "values": [{"measurement": "Factor content in serum GAS", "setting": "GAS, MTL in mouse serum; [4]", "value": "8.75 ± 1.41", "unit": "pg/mL"}, {"measurement": "Factor content in serum MTL", "setting": "GAS, MTL in mouse serum; [4]", "value": "105.69 ± 16.85", "unit": "pg/mL"}, {"measurement": "CD4+/CD8+ (peripheral blood)", "setting": "[1]; [5]", "value": "1.65 ± 0.23"}, {"measurement": "Percentage of immune cells in peripheral blood B cell", "setting": "[1]; [5]", "value": "15.72 ± 2.24", "unit": "%"}, {"measurement": "Percentage of immune cells in peripheral blood CD4+T cell", "setting": "[1]; [5]", "value": "32.47 ± 4.65", "unit": "%"}, {"measurement": "Percentage of immune cells in peripheral blood CD8+T cell", "setting": "[1]; [5]", "value": "20.03 ± 3.68", "unit": "%"}, {"measurement": "Inflammatory factor content in lung tissue IL-6", "setting": "[2]; [5]", "value": "149.98 ± 29.37", "unit": "pg/mL"}, {"measurement": "Inflammatory factor content in lung tissue IL-10", "setting": "[2]; [5]", "value": "52.54 ± 29.40", "unit": "pg/mL"}, {"measurement": "Inflammatory factor content in lung tissue INF-γ", "setting": "[2]; [5]", "value": "2.77 ± 3.48", "unit": "pg/mL"}, {"measurement": "Inflammatory factor content in lung tissue TNF-α", "setting": "[2]; [5]", "value": "38.33 ± 9.62", "unit": "pg/mL"}, {"measurement": "Viral load (lung tissue)", "setting": "HCoV-229E nucleic acid; [5]", "value": "56027.66 ± 31638.92"}, {"measurement": "Inhibition rate % (of lung index)", "setting": "[3]; chloroquine phosphate Id: 0.18 g/kg/d, 2-3: 0.09 g/kg/d", "value": 9.82, "unit": "%"}, {"measurement": "Lung index (Lung weight/100 g body weight)", "setting": "[3]; chloroquine phosphate Id: 0.18 g/kg/d, 2-3: 0.09 g/kg/d, gavage", "value": "0.85 ± 0.11"}]}, {"molecule": "Interferon α2b", "values": [{"measurement": "Factor content in serum GAS", "setting": "GAS, MTL in mouse serum; [6]", "value": "8.94 ± 1.07", "unit": "pg/mL"}, {"measurement": "Factor content in serum MTL", "setting": "GAS, MTL in mouse serum; [6]", "value": "115.43 ± 7.90", "unit": "pg/mL"}, {"measurement": "CD4+/CD8+ (peripheral blood)", "setting": "[1]; [6]", "value": "1.92 ± 0.63"}, {"measurement": "Percentage of immune cells in peripheral blood CD4+T cell", "setting": "[1]; [6]", "value": "35.17 ± 4.24", "unit": "%"}, {"measurement": "Percentage of immune cells in peripheral blood CD8+T cell", "setting": "[1]; [6]", "value": "19.68 ± 4.53", "unit": "%"}, {"measurement": "Percentage of immune cells in peripheral blood B cell", "setting": "[1]; interferon α2b, 20 min", "value": "6.40 ± 0.98", "unit": "%"}, {"measurement": "Inflammatory factor content in lung tissue TNF-α", "setting": "[2]; [6]", "value": "33.86 ± 8.72", "unit": "pg/mL"}, {"measurement": "Inflammatory factor content in lung tissue IL-6", "setting": "[2]; interferon α2b, 20 min", "value": "199.07 ± 38.37", "unit": "pg/mL"}, {"measurement": "Inflammatory factor content in lung tissue IL-10", "setting": "[2]; interferon α2b, 20 min", "value": "102.25 ± 58.14", "unit": "pg/mL"}, {"measurement": "Inflammatory factor content in lung tissue INF-γ", "setting": "[2]; interferon α2b, 20 min", "value": "4.20 ± 3.39", "unit": "pg/mL"}, {"measurement": "Viral load (lung tissue)", "setting": "HCoV-229E nucleic acid; [6]", "value": "63758.38 ± 17530.19"}, {"measurement": "Inhibition rate % (of lung index)", "setting": "[3]; interferon α2b 3 million IU, 20 min", "value": 40.38, "unit": "%"}, {"measurement": "Lung index (Lung weight/100 g body weight)", "setting": "[3]; interferon α2b 3 million IU, 20 min, atomization inhalation", "value": "0.79 ± 0.11"}]}]}
